Columns and labels:
Experiment in all cases: HPLC of anthocyanidin formed from product, crude E. coli extract
Type in all cases: biochemical
Conditions in all cases: 0.8 mM substrate, 1.6 mM NADPH, 50 mM Tris-HCl pH 7.0, 30 °C, 30 min
[1] = molecular target: T1, DeDFR2 (Dryopteris erythrosora, UniProt A0A5P8I1W3)
T1 construct: gene DFR2
T1 sequence (A0A5P8I1W3 1-341): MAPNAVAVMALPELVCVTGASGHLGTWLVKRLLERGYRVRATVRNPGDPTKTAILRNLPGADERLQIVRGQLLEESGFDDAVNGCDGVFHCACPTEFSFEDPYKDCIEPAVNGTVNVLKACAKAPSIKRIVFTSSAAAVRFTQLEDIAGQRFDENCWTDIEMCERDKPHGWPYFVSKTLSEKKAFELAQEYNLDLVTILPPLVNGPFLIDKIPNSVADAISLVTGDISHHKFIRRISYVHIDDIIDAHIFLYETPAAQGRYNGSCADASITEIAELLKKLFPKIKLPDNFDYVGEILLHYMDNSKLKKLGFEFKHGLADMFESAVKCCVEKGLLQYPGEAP

[2] = molecular target: T2, DeDFR1 (Dryopteris erythrosora, UniProt A0A5P8I1X0)
T2 construct: gene DFR1
T2 sequence (A0A5P8I1X0 1-328): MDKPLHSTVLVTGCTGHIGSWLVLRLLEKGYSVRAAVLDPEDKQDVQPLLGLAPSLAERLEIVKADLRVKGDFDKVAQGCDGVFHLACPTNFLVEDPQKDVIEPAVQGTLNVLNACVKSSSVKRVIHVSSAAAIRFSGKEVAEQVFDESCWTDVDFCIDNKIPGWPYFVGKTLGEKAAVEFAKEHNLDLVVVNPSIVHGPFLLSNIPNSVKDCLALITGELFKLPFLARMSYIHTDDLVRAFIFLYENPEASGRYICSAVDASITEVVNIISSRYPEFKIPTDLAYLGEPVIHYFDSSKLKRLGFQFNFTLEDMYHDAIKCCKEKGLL

[3] = molecular target: T3, AtDFR (Arabidopsis thaliana, UniProt P51102)
T3 construct: gene DFRA; pET28a-AtDFR, E. coli BL21(DE3), crude soluble extract
T3 sequence (P51102 1-382): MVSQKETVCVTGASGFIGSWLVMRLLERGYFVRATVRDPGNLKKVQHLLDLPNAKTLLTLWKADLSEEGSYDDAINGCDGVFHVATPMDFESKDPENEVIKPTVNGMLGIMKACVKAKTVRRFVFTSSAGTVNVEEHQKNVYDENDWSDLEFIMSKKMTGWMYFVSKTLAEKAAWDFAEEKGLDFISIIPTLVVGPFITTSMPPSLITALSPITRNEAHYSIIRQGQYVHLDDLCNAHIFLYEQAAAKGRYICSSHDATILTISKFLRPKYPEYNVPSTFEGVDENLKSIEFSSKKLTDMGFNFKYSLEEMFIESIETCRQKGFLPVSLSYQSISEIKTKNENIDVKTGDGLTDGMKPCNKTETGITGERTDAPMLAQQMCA

Structure (SMILES)	HPLC of anthocyanidin formed from product, crude E. coli extract [1]	HPLC of anthocyanidin formed from product, crude E. coli extract [2]	HPLC of anthocyanidin formed from product, crude E. coli extract [3]
O=C1c2c(O)cc(O)cc2O[C@H](c2ccc(O)cc2)[C@H]1O [DHK, dihydrokaempferol]	DeDFR1 and DeDFR2 had the ability to catalyze the DHK and DHQ reaction	DeDFR1 and DeDFR2 had the ability to catalyze the DHK and DHQ reaction	
O=C1c2c(O)cc(O)cc2O[C@H](c2cc(O)c(O)c(O)c2)[C@H]1O [DHM, dihydromyricetin]			all three dihydroflavonols could be converted to pink anthocyanins
O=C1c2c(O)cc(O)cc2O[C@H](c2ccc(O)c(O)c2)[C@H]1O [DHQ, dihydroquercetin]	DeDFR1 and DeDFR2 had the ability to catalyze the DHK and DHQ reaction	DeDFR1 and DeDFR2 had the ability to catalyze the DHK and DHQ reaction	all three dihydroflavonols could be converted to pink anthocyanins
